Among the data in US20250032465A1, “METHODS OF TREATING CNS DISORDERS” (HANGZHOU HIGHLIGHTLL PHARMACEUTICAL CO., LTD, priority 2021, published 2025) are IC50 values, retold here.

The target of this assay is T1, TYK2 (Homo sapiens, UniProt P29597).
T1 construct: purchased Reaction Biology Corp, Malvern, PA (contract testing)
Kind of assay: TYK2 cellular ELISA assay using NK92 cells (IL-12 and IL-18 stimulated IFNγ excretion). The assay is classed as cell-based. Particulars: IL-12 2 ng/ml, IL-18 5 ng/ml, 24 hours. As to the method:
This testing was performed to test cellular TYK2 activity using IL-12 and IL-18 stimulated IFNγ excretion assay in NK92 cells. The testing was performed according to the following procedure: 1) Replace NK92 cell media containing IL-2 with media not containing IL-2, maintain overnight; 2) Plate NK92 cells to 96-well plate at density of ˜150,000 cell/well; 3) Add different concentrations of test article to wells, maintain in incubator at 37° C. and 5% CO2 for 1 hour; 4) Add IL-12 (final concentration: 2 ng/ml) and IL-18 (final concentration: 5 ng/ml) to stimulate for 24 hours in the above incubator; 5) After 24 hours, centrifuge at 2000 rpm for 5 min, take the supernatant and analyze according to instructions of the ELISA kit. In this assay, compounds of Formulae (II) and (III) had IC50<100 nM.

T1 sequence (P29597 whole entry): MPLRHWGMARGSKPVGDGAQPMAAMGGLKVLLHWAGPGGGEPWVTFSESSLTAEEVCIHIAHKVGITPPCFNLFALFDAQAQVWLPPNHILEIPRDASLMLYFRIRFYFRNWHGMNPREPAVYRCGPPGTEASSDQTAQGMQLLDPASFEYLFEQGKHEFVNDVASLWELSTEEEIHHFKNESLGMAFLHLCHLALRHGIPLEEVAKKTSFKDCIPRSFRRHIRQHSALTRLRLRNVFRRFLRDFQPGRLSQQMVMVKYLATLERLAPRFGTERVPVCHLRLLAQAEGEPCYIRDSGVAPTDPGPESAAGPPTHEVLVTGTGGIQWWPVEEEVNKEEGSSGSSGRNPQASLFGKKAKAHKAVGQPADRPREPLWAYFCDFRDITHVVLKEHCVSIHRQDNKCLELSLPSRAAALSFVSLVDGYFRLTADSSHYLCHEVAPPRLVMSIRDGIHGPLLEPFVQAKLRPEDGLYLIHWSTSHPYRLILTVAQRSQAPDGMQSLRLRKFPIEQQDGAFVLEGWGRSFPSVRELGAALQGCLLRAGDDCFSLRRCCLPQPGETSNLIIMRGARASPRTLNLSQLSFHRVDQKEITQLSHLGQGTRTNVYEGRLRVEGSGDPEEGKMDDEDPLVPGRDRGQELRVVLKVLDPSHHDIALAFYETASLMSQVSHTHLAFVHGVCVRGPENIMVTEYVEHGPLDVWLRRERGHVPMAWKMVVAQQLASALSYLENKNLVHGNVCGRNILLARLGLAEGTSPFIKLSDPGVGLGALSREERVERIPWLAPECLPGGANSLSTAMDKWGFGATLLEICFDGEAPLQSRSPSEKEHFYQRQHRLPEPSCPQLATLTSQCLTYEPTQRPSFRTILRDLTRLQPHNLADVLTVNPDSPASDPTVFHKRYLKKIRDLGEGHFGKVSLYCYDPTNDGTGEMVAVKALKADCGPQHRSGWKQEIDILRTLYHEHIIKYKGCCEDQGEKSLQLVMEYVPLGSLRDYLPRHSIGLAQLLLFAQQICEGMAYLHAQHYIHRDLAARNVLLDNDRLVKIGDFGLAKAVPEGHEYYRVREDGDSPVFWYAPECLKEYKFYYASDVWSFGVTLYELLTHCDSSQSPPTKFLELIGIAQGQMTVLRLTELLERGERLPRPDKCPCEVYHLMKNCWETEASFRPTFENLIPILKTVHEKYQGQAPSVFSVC

In turn, `Cc1nc2cnc3ccoc3c2n1[C@H]1CC[C@H](CC#N)OC1` [Formula (II)] came in with an IC50 of less than 0.1 µM.
